# Residues, ends and D or L forms follow the SMILES beside them.
# Columns and labels:
# [1] = tested on: C8161 (human melanoma) cells; assay: In vivo experimental metastasis mouse model; parameters: species or system Nude mice (BALB/c-nude); conditions: 200µg/100µℓ PBS intravenously twice per week (total 7 times); 4 weeks; vs PBS
# Protocol: In vivo therapeutic efficacy of A_intact peptide was evaluated using experimental metastasis mouse model. The in vivo experimental metastasis model was constructed as described below.
# Nude mice (BALB/c-nude, 6 weeks old, female) were obtained from Charles River Japan (Japan). C8161 (human melanoma) cells (8 x 10^5 cells in 100 µℓ PBS per mouse) were injected into the tail vein. Two days later, mice were randomized into control and treatment groups (n=5 per group) . Modified A_intact peptide (200µg/100µℓ PBS) or A_intact-Fc fusion protein (100µg/100µℓ PBS) were intravenously injected into each mouse twice per week (total 7 times). As a negative control, PBS (100µℓ/mouse) was injected. All animals were killed at 4 weeks after injection of cancer cells. Lung and liver were excised and fixed in 10% formalin for 24 h. Metastatic foci on the surface of lung and liver were counted.
# [2] = tested on: SW480sub cells; assay: Invasion assay (Matrigel-coated transwell, collagen type I chemoattractant) with peptide-treated SW480sub cells; type: cell-based; conditions: for invasion reduced compared to the vehicle control: peptide 50 µM
# Protocol: SW480sub was subpopulation of SW480 having high in vitro invasion and in vivo metastasis ability. The effect of each peptide on colorectal cancer cell invasion was analyzed using the said SW480sub. SW480sub cells were mixed with each peptide, followed by pre-incubation for 30 minutes.
# (§1) Particularly, the porous membrane of 24-well transwell plate (8 µm pore size; Costar, USA) was coated with 100 µℓ of matrigel (BD Biosciences, USA) diluted in serum free medium at the concentration of 250 µg/mℓ, which stood at room temperature for 1 hour for fixing. The lower part of the transwell plate was coated with 100 µℓ of collagen type I (Sigma) at the concentration of 20 µg/mℓ. The said collagen type I was used as a chemoattractant. 1×10^4 cells resuspended in serum free medium were distributed in the upper chamber of the said 24-well transwell plate, followed by culture at 37°C with 5% CO2 for 48 hours, during which the cells were induced to migrate from the upper chamber to the lower chamber. The non-migrated cells were eliminated from the surface of the upper chamber. […] The excessive crystal violet solution was washed off with distilled water. The selected area (×100) was photographed. The number of the cells migrated was counted from 5 different selected areas. Then, mean value and standard error were obtained.
# [3] = tested on: SW480 cells; assay: Invasion assay with peptide-treated SW480 cells; type: cell-based; conditions: concentration not given
# Protocol: as §1
# SW480 colorectal cancer cells were treated with peptides originated from C12orf59, and effects of the peptids on invasion of the cells were analyzed.
# [4] = tested on: colorectal cancer cells; assay: Cellular survival rate of colorectal cancer cells measured by absorbance; type: cell-based; conditions: as in Example <3-2>
# Protocol: (§2) Particularly, 100 µℓ of poly-HEMA (Sigma) at the concentration of 12 mg/mℓ was loaded in 96-well plate, which stood in clean bench for 1 day, followed by drying. On the next day, the plate was coated with Poly-HEMA once again. Cells were distributed in the poly-HEMA coated plate by 100 µℓ/well (1×10^4 cells/well). At that time, serum-free medium was used. 6 days later, 10 µℓ of CCK-8 reagent (Dojindo cat. CK04-13) was added to each well, followed by reaction for 3 hours. Then, OD450 was measured.
# In particular, a cellular survival rate was measured using absorbance in the same manner as in Example <3-2>.
# [5] = tested on: SW480 cells; assay: Cell survivability under anchorage independent condition (poly-HEMA plate, CCK-8, OD450); type: cell-based; conditions: peptide 100 µg/mℓ, 6 days
# Protocol: 6 days later, cell survivability was measured by colorimetric technique under the anchorage independent condition.
# as §2
# [6] = tested on: C8161 (human melanoma) cell line; assay: Invasion assay with C8161 cells (Matrigel-coated Transwell); type: cell-based; conditions: 24 h
# Protocol: Specifically, C8161 (human melanoma) cell line was cultured in DMEM containing 10% FBS, penicillin-streptomycin, L-glutamine, sodium pyruvate and glucose. C8161 cells (1 x 10^4) in the presence of the peptide were plated in serum-free medium on 24-well Transwell inserts (8 µm pore size; Costar, USA) coated with 25 µg of […] (BD Biosciences, USA). The underside of the insert was coated with 100 µℓ of collagen type I (Sigma) at the concentration of 5 µg/mℓ. […] The number of cells that had invaded was counted in five representative fields per insert. Then, mean value and standard deviation were obtained.
Compound,invasion reduced compared to the vehicle control [2],invasion of cells reduced by [3],effect on the survival of colorectal cancer cells [4],also measured
CC(=O)N[C@@H](CCC(=O)O)C(=O)N[C@@H](CCC(=O)O)C(=O)N[C@@H](CC(N)=O)C(=O)N[C@@H](CS)C(=O)NCC(=O)N[C@@H](CC(N)=O)C(=O)N1CCC[C@H]1C(=O)N[C@@H](CCC(=O)O)C(=O)N[C@@H](Cc1c[nH]cn1)C(=O)N[C@@H](CS)C(=O)N[C@@H](CC(C)C)C(=O)N[C@H](C(=O)N[C@H](C(=O)N[C@@H](CC(=O)O)C(=O)N[C@@H](Cc1c[nH]c2ccccc12)C(=O)N[C@H](C(=O)N[C@@H](Cc1c[nH]cn1)C(N)=O)C(C)C)[C@@H](C)O)[C@@H](C)O [Modified A_intact peptide] (Ac-EENCGNPEHCLTTDWVH-NH2),,,,metastasis to the liver (metastatic nodules) [1]: inhibited; metastasis to the lung (metastatic nodules) [1]: inhibited
PCCISSCCLT [B_Cen],33%,,,
PCCISSCCLTTDWVH [B_N-term],,55%,inhibitory effects on the survival of colorectal cancer cells in a concentration-dependent manner,
SWRPQPCCISSCCLT [B_C-term1],73%,45%,inhibitory effects on the survival of colorectal cancer cells in a concentration-dependent manner,
"SWRPQPCCISSCCLTTDWVH [B_intact, fragment of C12orf59 isoform 2 extracellular domain, 20 amino acids]",,47%,,"cell survivability reduced by [5]: 90%; C8161 invasion reduced by ([6]; 30 µg/mℓ): 48%; C8161 invasion reduced by ([6]; 100 µg/mℓ): 70%; invasion rate reduced compared to the control ([2]; peptide 43 µM): 29%; colorectal cancer cell invasion reduced by ([2]; peptide 100 µg/mℓ, 48 hours): 90%"
